Our source for the IC50 values is BindingDB's records for patent US11547697 (Millennium Pharmaceuticals, 2023).

Chain of Phosphatidylinositol 4,5-bisphosphate 3-kinase catalytic subunit beta isoform (P42338 whole entry, canonical isoform): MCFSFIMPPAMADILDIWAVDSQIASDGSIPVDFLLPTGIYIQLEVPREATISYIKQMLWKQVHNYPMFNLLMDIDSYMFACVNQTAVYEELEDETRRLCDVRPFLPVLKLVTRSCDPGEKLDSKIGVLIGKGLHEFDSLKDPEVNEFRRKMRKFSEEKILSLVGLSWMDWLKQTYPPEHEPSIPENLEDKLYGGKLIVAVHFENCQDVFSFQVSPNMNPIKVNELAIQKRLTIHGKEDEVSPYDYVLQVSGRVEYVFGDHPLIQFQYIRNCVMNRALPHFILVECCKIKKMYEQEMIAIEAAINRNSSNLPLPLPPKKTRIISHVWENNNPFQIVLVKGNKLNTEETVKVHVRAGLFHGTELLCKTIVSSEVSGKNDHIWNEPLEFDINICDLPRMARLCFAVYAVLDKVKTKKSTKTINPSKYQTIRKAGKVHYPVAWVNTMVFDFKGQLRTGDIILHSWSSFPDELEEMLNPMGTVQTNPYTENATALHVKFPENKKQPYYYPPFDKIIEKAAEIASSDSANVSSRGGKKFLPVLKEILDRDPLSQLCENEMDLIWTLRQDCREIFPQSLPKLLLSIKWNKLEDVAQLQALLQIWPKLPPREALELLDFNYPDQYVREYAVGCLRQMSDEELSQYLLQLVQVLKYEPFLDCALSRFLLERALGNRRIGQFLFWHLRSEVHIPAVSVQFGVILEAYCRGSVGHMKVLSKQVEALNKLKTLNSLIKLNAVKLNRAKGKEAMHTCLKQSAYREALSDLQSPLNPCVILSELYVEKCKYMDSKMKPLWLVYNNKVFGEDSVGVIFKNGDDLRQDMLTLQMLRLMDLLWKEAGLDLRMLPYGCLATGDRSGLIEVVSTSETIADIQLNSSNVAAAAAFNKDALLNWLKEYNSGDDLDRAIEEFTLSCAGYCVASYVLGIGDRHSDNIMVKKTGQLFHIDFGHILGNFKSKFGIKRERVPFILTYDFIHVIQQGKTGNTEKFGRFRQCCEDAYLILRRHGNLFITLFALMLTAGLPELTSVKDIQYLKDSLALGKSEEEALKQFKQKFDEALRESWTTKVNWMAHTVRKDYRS

This assay addresses Phosphatidylinositol 4,5-bisphosphate 3-kinase catalytic subunit beta isoform (Homo sapiens, UniProt P42338). The assay can be described thus: Inhibition Assay of PI3K.
For orientation: IC50 means the concentration needed to halve the response being measured. Read a high IC50 as a need for much substance. `Nc1nc2cc(-c3ccc4ncc(C(=O)N5C6CCC5COC6)n4c3)ccc2o1` [US11547697, Compound 480] came in with an IC50 of more than 10 µM.

`Nc1nc2cc(-c3ccc4ncc(C(=O)N5CC(N6CCC(F)(F)C6)C5)n4c3)ccc2o1` [US11547697, Compound 502] registered an IC50 of more than 10 µM. The result for `CS(=O)(=O)N1CCN(C(=O)c2cnc3ccc(-c4ccc5oc(N)nc5c4)cn23)CC1` [US11547697, Compound 112] reads more than 10 µM; that for `Nc1nc2cc(-c3ccc4ncc(C(=O)Nc5cccnc5)n4c3)ccc2o1` [US11547697, Compound 190], more than 10 µM. The result for `CC(=O)Nc1ncc(-c2ccc3oc(N)nc3c2)s1` [US11547697, Compound 235] reads more than 10 µM; that for `Nc1nc2cc(-c3ccc4ncc(C(=O)N5CC[C@@H](F)C5)n4c3)ccc2o1` [US11547697, Compound 475], more than 10 µM; that for `COc1ncc(-c2ccc3ncc(C(=O)N4CCOCC4)n3c2)c2cn[nH]c12` [US11547697, Compound 517], more than 10 µM. The same measure for `O=C(c1cnc2ccc(-c3cncc(NS(=O)(=O)c4ccc(F)cc4F)c3)cn12)N1CCOCC1` [US11547697, Compound 425]: more than 10 µM; for `COc1ncc(-c2ccc3ncc(C(=O)N4CCOCC4)n3c2)cc1NS(=O)(=O)c1ccccc1` [US11547697, Compound 420]: more than 10 µM. In turn, `C[C@H]1CCCN1C(=O)c1cnc2ccc(-c3ccc4oc(N)nc4c3)cn12` [US11547697, Compound 482] registered a 50% inhibitory concentration (IC50) of more than 10 µM. The result for `Nc1nc2cc(-c3ccc4ncc(N5CC(N6CCC(O)CC6)C5)nc4c3)ccc2o1` [US11547697, Compound 341] reads more than 10 µM; that for `O=C(c1cnc2ccc(-c3cncc(NS(=O)(=O)c4ccccc4)c3)cn12)N1CCOCC1` [US11547697, Compound 424], more than 10 µM. The result for `Nc1ncnc2ccc(-c3ccc4nccc(-c5ccncc5)c4c3)cc12` [US11547697, Compound 8] reads more than 10 µM; that for `O=C(c1cnc2ccc(-c3cccc(NS(=O)(=O)c4ccc(F)cc4F)c3)cn12)N1CCOCC1` [US11547697, Compound 454], more than 10 µM; that for `Nc1nc2ccc(-c3ccc4ncc(C(=O)N5CCOCC5)n4c3)cc2s1` [US11547697, Compound 125], more than 10 µM. As to `Nc1ccc2cc(-c3ccc4nccc(-c5ccncc5)c4c3)ccc2n1` [US11547697, Compound 5], the half-inhibitory concentration (IC50) is more than 10 µM.
